Experiment [1] has as its target T1, AAD1 (v1) (Sphingobium herbicidovorans, UniProt Q8KSC8).
T1 construct: made in house; host or cells: E. coli BL-21 Star (DE3), plasmid pDAB3203
The experiment can be described thus: Colorimetric phenol detection assay of AAD1 (v1) activity (purified enzyme or E. coli extract). The format is biochemical.

Experiment [2] deals with wt ARBTH. Kind of experiment: In vitro plate test of herbicide cross resistance: wild-type Arabidopsis. The format is in vivo, Arabidopsis thaliana. Particulars: 7 days. As for the experimental part:
(§1) The ability of AAD1 (v3) to provide resistance to other aryloxyphenoxyalkanoate herbicides in transgenic Arabidopsis was determined using a modified in vitro plate assay. Seeds from wild-type Arabidopsis thaliana as well as Arabidopsis thaliana containing the plant optimized AAD1 (v3) gene (T4 homozygous plants id=PAAD1.315.064) were sterilized by agitating for 10 min in a 50% bleach solution. These seeds were then rinsed four times with sterile water to remove the bleach.
(§2) Dose response assays utilized a nutrient media (see below) supplemented with various rates of test compounds. The test compounds were added to the heated media (55° C.) as concentrated solutions in DMSO. Control wells had the appropriate amount of DMSO without any additional compound. The final concentration of DMSO never exceeded 1% (v/v). After thorough mixing, a 6 mL aliquot of the warm media containing the appropriate concentration of compound was added to each well of a 6-well, flat bottom, polystyrene tissue culture tray (Falcon 353046, Becton Dickson and Company, Franklin Lakes, N.J.). After the media solidified, approximately 20 to 30 Arabidopsis seeds were applied on top of the solidified media and the remaining 2 mL of media was poured over the seeds. The plates were lightly agitated to disperse the seeds, covered and allowed to cool until the media had completely solidified. The plates were incubated for 7 days at 25° C. under continual fluorescent lighting (75 μE m^−2 s^−1). Nutrient Media Composition was as described in Example 2.2 and in Somerville and Orgen (1982).
(§3) Assessment of Growth Reduction. The apical portion of the Arabidopsis plants grown in the treated media was assessed visually relative to the apical portion of the plants grown in the media containing only DMSO. Values were recorded as % growth reduction. Assessments of root growth inhibition of the Arabidopsis plants grown in the treated media were achieved by carefully extracting the plants from the media and measuring the length of the root. These root lengths were then compared to the root length of the control plants to determine a % growth reduction. A minimum of five plants were assessed for each treatment. The values recorded are an average of all the plants assessed. The calculated concentration to reach 50% inhibition effect (I50) were determined for both root and shoots of wildtype and AAD1-transformed Arabidopsis. The ratios of resistant to sensitive biotypes are included in Table 19. A ratio>2 for both root and shoot measurements generally signifies significant resistance. The higher the ratio, the greater the level of resistance. […] The broad phenoxy auxin resistance is the first reported in planta.

Experiment [3] concerns PAAD1.315.064 ARBTH. Kind of experiment: In vitro plate test of herbicide cross resistance: homozygous T4 AAD1 (v3) Arabidopsis. The format is in vivo, Arabidopsis thaliana. Conditions: for root ratio / shoot ratio: resistant to sensitive biotype, >2 signifies resistance; for PAAD1.315.064 ARBTH root 150 / PAAD1.315.064 T3 ARBTH shoot 150: 7 days. The procedure:
as §1, §2, §3

Experiment [4] has as its system Arabidopsis thaliana var. Columbia. The experiment can be described thus: Arabidopsis plate test bioassay for herbicide degradation. The format is in vivo. Conditions: Arabidopsis thaliana, 168 h, read-out: GR50, Chemical alone.
The test system of experiment [5] is T4 Arabidopsis homozygous for AAD1 (v3) (line AAD1.01.315.076). The experiment can be described thus: Foliar-applied auxinic herbicides on homozygous T4 AAD1 (v3) Arabidopsis, % injury 14 DAT. The format is in vivo, Arabidopsis thaliana. Particulars: foliar, 50-3200 g ae/ha. As for the experimental part: The ability of AAD1 (v3) to provide resistance to other aryloxyphenoxyalkanoate auxin herbicides in transgenic Arabidopsis was determined by foliar application of various substrates described in Example 6.8. T4 generation Arabidopsis seed, homozygous for AAD1 (v3) (line AAD1.01.315.076) was stratified, and sown into selection trays much like that of Arabidopsis (Example 6.4). A transformed-control line containing PAT and the insect resistance gene Cry1F was planted in a similar manner. Seedlings were transferred to individual 3-inch pots in the greenhouse. All plants were sprayed with the use of a track sprayer set at 187 L/ha. […] All applications were formulated in 200 mM Hepes buffer (pH 7.5). Each treatment was replicated 3-4 times. Plants were evaluated at 3 and 14 days after treatment and are averaged over two experiments.

The test system of experiment [6] is AAD1 (v3) event lines. Kind of experiment: Field tolerance of pDAB3404 T1 corn to quizalofop and 2,4-D: AAD1 (v3) events. Particulars: 1120 g ae/ha. The format is in vivo. From the text: (§4) Two field trials were established at field stations in Hawaii and Indiana. […] The hybrid Hi-II×5XH571 is of the same parentage as the AAD1 (v3) event lines. The hybrid Croplan 585SR is a sethoxydim resistant line.
(§5) The experimental design was a split-plot with four replications. The main plot was herbicide treatment and the sub-plot was AAD1 (v3) event or comparison hybrid. Plots were one row by 3.7 meters with approximately twenty-five seeds planted in each row. For AAD1 events, seeds from a different lineage within the event were planted in each replicate.
(§6) Glufosinate at 560 g ai/ha was applied to AAD1 (v3) plots at the V2 stage to eliminate non-transformed plants. […] Treatments were applied using backpack broadcast boom equipment delivering 187 L/ha carrier volume at 130-200 kpa pressure.
(§7) Quizalofop treated plots were visually assessed for crop injury at one and three weeks after application (WAA) using a 0-100% scale, where 0 equals no injury and 100 equals complete death.

The test system of experiment [7] is Non-transformed hybrids. Kind of experiment: Field tolerance to quizalofop and 2,4-D: non-transformed hybrids. The format is in vivo, corn. Conditions: 1120 g ae/ha.
Source text: as §4, §5, §6, §7

T1 sequence (Q8KSC8 whole entry): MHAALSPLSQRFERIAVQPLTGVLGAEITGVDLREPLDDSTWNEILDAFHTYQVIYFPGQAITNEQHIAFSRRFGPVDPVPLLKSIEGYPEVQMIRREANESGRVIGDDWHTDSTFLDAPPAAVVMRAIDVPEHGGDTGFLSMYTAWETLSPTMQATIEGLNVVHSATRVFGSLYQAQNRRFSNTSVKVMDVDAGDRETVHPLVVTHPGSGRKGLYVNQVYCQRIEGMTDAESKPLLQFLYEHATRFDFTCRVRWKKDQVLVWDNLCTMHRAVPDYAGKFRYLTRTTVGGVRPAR

Take `Cc1cc(Cl)ccc1OCC(=O)O` [MCPA]: in experiment [1] (1 mM, 27 μg crude recombinant AAD1 (v1) per assay), the “rate of product formation relative to 2,4-D” value worked out at 55%. In experiment [1] (Table 8, 1 mM, 27 μg crude recombinant AAD1 (v1) extract from E. coli), the A510 is on record as 0.097. In addition, the “% 2,4-D” value in experiment [1] (Table 8, relative to 2,4-D, crude AAD1 (v1) extract) came to 55%. Further, in experiment [2], the “wt ARBTH root 150” value stood at 0.01 ppm and the “wt ARBTH shoot 150” value stood at 0.2 ppm. Besides, in experiment [3], the root ratio is 3, the shoot ratio was determined as 5, the “PAAD1.315.064 ARBTH root 150” value is 0.03 ppm and the “PAAD1.315.064 T3 ARBTH shoot 150” value turned out to be 1 ppm.

As to `Oc1ccc(Cl)cc1Cl` [DCP, 2,4-dichlorophenol], in experiment [4], the IC50 was greater than 1 µM. Further, the “effect of the metabolite on wildtype or transgenic Arabidopsis” value in experiment [5] was “no effect”.

Regarding `CNC.O=C(O)COc1ccc(Cl)cc1Cl` [2,4-D amine], the “%Leaning 2 DAA (0-100 scale)” value is 5% in experiment [6] (HI, 3404.001); 0% in experiment [6] (HI, 3404.006); 0% in experiment [6] (HI, 3404.013); 0% in experiment [6] (HI, 3404.017); 0% in experiment [6] (HI, 3404.020); 0% in experiment [6] (HI, 3404.022). Besides, the “%Leaning 2 DAA (0-100 scale)” value in experiment [6] (HI, 3404.025) was 0%; in experiment [6] (HI, 3404.027), 0%; in experiment [6] (HI, 3404.031), 0%; in experiment [6] (HI, 3404.033), 0%; in experiment [6] (HI, 3404.036), 0%; in experiment [6] (HI, 3404.044), 0%. The “%Leaning 2 DAA (0-100 scale)” value in experiment [6] (HI, 3404.050) worked out at 1%; in experiment [6] (HI, 3404.053) it was 0%; in experiment [6] (HI, 3404.074) it was 0%; in experiment [6] (HI, 3404.082), 0%; in experiment [6] (IN, 3404.001), 0%; in experiment [6] (IN, 3404.006) it was 0%. Further, the “%Leaning 2 DAA (0-100 scale)” value came to 0% in experiment [6] (IN, 3404.013); 1% in experiment [6] (IN, 3404.017); 0% in experiment [6] (IN, 3404.020); 1% in experiment [6] (IN, 3404.022); 0% in experiment [6] (IN, 3404.025); 3% in experiment [6] (IN, 3404.027). In addition, the “%Leaning 2 DAA (0-100 scale)” value in experiment [6] (IN, 3404.031) is on record as 1%; in experiment [6] (IN, 3404.033) it was 0%; in experiment [6] (IN, 3404.036), 0%; in experiment [6] (IN, 3404.044), 1%; in experiment [6] (IN, 3404.050), 0%; in experiment [6] (IN, 3404.053), 1%. The “%Leaning 2 DAA (0-100 scale)” value in experiment [6] (IN, 3404.074) is on record as 0%; in experiment [6] (IN, 3404.082) it was 0%; in experiment [7] (HI, CROPLAN 585SR) it was 33%; in experiment [7] (HI, DK493), 23%; in experiment [7] (HI, HI-II X 5XH571) it was 34%; in experiment [7] (IN, CROPLAN 585SR) it was 11%. Besides, the “%Leaning 2 DAA (0-100 scale)” value turned out to be 20% in experiment [7] (IN, DK493) and 13% in experiment [7] (IN, HI-II X 5XH571). Further, the “Braceroot Deformation 3-4 WAA (0-10 scale)” value (shortened to “Braceroot Deformation 3-4 WAA”) in experiment [6] (HI, 3404.001) is recorded as 2; in experiment [6] (HI, 3404.006), 0; in experiment [6] (HI, 3404.013), 0; in experiment [6] (HI, 3404.017) it was 0; in experiment [6] (HI, 3404.020), 0; in experiment [6] (HI, 3404.022), 0. Besides, the “Braceroot Deformation 3-4 WAA” value was 0 in experiment [6] (HI, 3404.025); 0 in experiment [6] (HI, 3404.027); 0 in experiment [6] (HI, 3404.031); 0 in experiment [6] (HI, 3404.033); 0 in experiment [6] (HI, 3404.036); 1 in experiment [6] (HI, 3404.044). The “Braceroot Deformation 3-4 WAA” value in experiment [6] (HI, 3404.050) was determined as 1; in experiment [6] (HI, 3404.053) it was 0; in experiment [6] (HI, 3404.074), 0; in experiment [6] (HI, 3404.082), 1; in experiment [6] (IN, 3404.001) it was 1; in experiment [6] (IN, 3404.006), 0. Further, the “Braceroot Deformation 3-4 WAA” value in experiment [6] (IN, 3404.013) amounted to 0; in experiment [6] (IN, 3404.017), 0; in experiment [6] (IN, 3404.020), 0; in experiment [6] (IN, 3404.022), 0; in experiment [6] (IN, 3404.025), 0; in experiment [6] (IN, 3404.027), 0. The “Braceroot Deformation 3-4 WAA” value stood at 0 in experiment [6] (IN, 3404.031); 0 in experiment [6] (IN, 3404.033); 0 in experiment [6] (IN, 3404.036); 0 in experiment [6] (IN, 3404.044); 0 in experiment [6] (IN, 3404.050); 0 in experiment [6] (IN, 3404.053). Further, the “Braceroot Deformation 3-4 WAA” value came out at 0 in experiment [6] (IN, 3404.074); 0 in experiment [6] (IN, 3404.082); 9 in experiment [7] (HI, CROPLAN 585SR); 9 in experiment [7] (HI, DK493); 9 in experiment [7] (HI, HI-II X 5XH571); 9 in experiment [7] (IN, CROPLAN 585SR). The “Braceroot Deformation 3-4 WAA” value in experiment [7] (IN, DK493) came to 8; in experiment [7] (IN, HI-II X 5XH571), 7.

As to `Nc1c(Cl)c(Cl)nc(C(=O)O)c1Cl` [Picloram], in experiment [2], the “wt ARBTH root 150” value was determined as 0.3 ppm and the “wt ARBTH shoot 150” value is 1 ppm. In experiment [3], the root ratio is listed as 0.5, the shoot ratio amounted to 0.5, the “PAAD1.315.064 ARBTH root 150” value was determined as 0.15 ppm and the “PAAD1.315.064 T3 ARBTH shoot 150” value was determined as 0.5 ppm. Moreover, the “resistance afforded by AAD1 (v3) in plate test” value in experiment [3] (root and shoot assessment) is given as “did not effectively protect”.

The values are drawn from US10450549B2, “Aryloxyphenoxypropionate tolerance in turfrgass species and use of AAD1 as a selectable marker” (Dow AgroSciences, LLC, priority 2004, dated 2019).
